Source: patent publication US20250114331A1, “CONCURRENT TARGETING OF ONCOGENIC PATHWAYS TO ENHANCE CHEMOTHERAPY AND IMMUNOTHERAPY” (THE JOHNS HOPKINS UNIVERSITY, priority 2021, published 2025)
Entries after “also recorded” stand apart in the source; their conditions may differ.

Legend:
H1299 xenografts = experiment: H1299 xenograft treatment; type: in vivo, NSG mice; conditions: verteporfin 50 mg/kg i.p. three times a week; S3I-201 5 mg/kg i.p. every day
Text: (§1) For therapeutic experiments, 4- to 5-week-old NOD/SCID/IL2Ry−/− (NSG) mice were obtained from the Johns Hopkins Medical Institute's (Baltimore, MD) animal care facility. We injected H1299 cells (1×106) and H1437 cells (1×106), which were suspended in the mixture as described above, subcutaneously into both flanks. For the patient-derived xenograft (PDX) models, 13 PDX blocks (CTG0162, 0178, 0502, 0848, 1309, 1351, 1358, 1361, 1762, 1885, 2017, 2481, and 2708) were obtained from Champion Oncology. All these PDXs were established from primary lung adenocarcinoma tumors. The tumor tissues were cut into 4×2 mm pieces and implanted in the subcutaneous spaces of both flanks. When tumor volumes reached to 200+50 mm3, mice were randomly assigned to six experimental groups [control, chemo (cisplatin+gemcitabine), chemo+verteporfin, chemo+S3I-201, “all” (cisplatin+gemcitabine+verteporfin+S3I-201), and verteporfin+S3I-201] at 5 mice per group. Cisplatin (Sigma-Aldrich; #P4394), gemcitabine (Medkoo; #100410), S3I-201 (MedKoo; #202541), and verteporfin (Sigma-Aldrich; #1711461) were used to treat the mice. Cisplatin (2.5 mg/kg) and gemcitabine (120 mg/kg) were administrated via intraperitoneal injection once a week (22). […] Each tumor volume was measured every 3 days. Therapeutic efficacy was evaluated from percentage change of the tumor volume compared with the tumor size before treatment.

H1299 and H1437 cells [1] = experiment: Immunoblotting of YAP1, STAT3 and pSTAT3 after drug treatment; type: cell-based, human
Experimental: Western blotting. Cells were dissolved in RIPA buffer (Thermo Fisher Scientific) supplemented with proteinase inhibitor and phosphatase inhibitor cocktails (Roche, Mannheim, Germany). After total protein lysate was electrophoretically transferred onto PVDF membrane, the membrane was blocked with 5% skim milk in 0.05% TBS-Tween buffer and incubated at 4° C. overnight with a primary antibody specific to each protein. The membrane was then probed with an appropriate secondary antibody (Cell Signaling Technology, Danvers, USA). β-actin served as an endogenous control. The primary antibodies and dilution ratios were β-actin (Sigma-Aldrich; #A2228; 1:5000), NANOG (D73G4; Cell Signaling Technology; #4903; 1:1000), OCT4 (D705Z; Cell Signaling Technology; #75463; 1:500), SOX2 (EPR3131; Abcam, Cambridge, UK; #ab92494; 1:500), STAT3 (124H6; Cell Signaling Technology; #9139; 1:2000), pSTAT3 (D3A7; Cell Signaling Technology; #9145; 1:1000) and YAP1 (EP1674Y; Abcam, #ab52771; 1:2000).
To determine doses of these drugs that are effective for pathway inhibition, H1299 and H1437 cells were treated with verteporfin or S3I-201 for 72 hours.

H1299 and H1437 cells [2] = experiment: qRT-PCR of YAP1 and STAT3 pathway genes after drug treatment for 72 hours; type: cell-based, human
Experimental: qRT-PCR. The mRNA expression level of each gene was determined by qRT-PCR. […] We quantified the β-actin mRNA level to normalize the expression levels of the targeted genes. Each sample was tested in triplicate and run three times. Each graph shown in our figures indicates the average mRNA expression level of targeted genes compared with the β-actin expression level, with standard error of mean. To determine doses of these drugs that are effective for pathway inhibition, H1299 and H1437 cells were treated with verteporfin or S3I-201 for 72 hours.

MB49 derived xenograft = MB49 derived xenograft treated with STAT3 inhibitor; type: in vivo, C57BL/6 mice; conditions: for expression of CSC associated markers and CXCLs in tumor tissues: qRT-PCR
Experimental: In vivo xenograft assay and treatment. For in vivo xenograft, cells were suspended in 100 μL of a 1:1 mixture of serum-free DMEM and Cultrex Stem Cell Qualified Reduced Growth Factor Basement Membrane Extract (Trevigen, Gaithersburg, USA), and then injected subcutaneously into the both flanks of C57BL/6 mice for MB49/UPPL595/BBN975 cells.
YAP1 induces immunosuppression partially through IL6/STAT3 signaling and STAT3 inhibition mimics the antitumor activity of YAP1 attenuation. The present inventors recently reported that YAP1 positively regulates IL6/STAT3 signaling (38) in LUAD.

H1437 xenografts = experiment: H1437 xenograft treatment; type: in vivo, NSG mice; conditions: verteporfin 50 mg/kg i.p. three times a week; S3I-201 5 mg/kg i.p. every day
Text: as §1

[3] = tested on: H1299, H1437 and A549 cells; experiment: Cell viability assay with cisplatin in YAP1/STAT3-modified cells; type: cell-based, human
Experimental: Cell proliferation assay and viability assay. Cell proliferation and viability were evaluated using Cell Counting Kit-8 (Dojindo Molecular Technologies). For cell proliferation assay, after cells (5×10^3/well) were seeded into 96-well plates with RPMI1640 containing 2% FBS, the optical density of each well was measured every 24 hours for 4 days. We added […] of cell counting kit-8 solution to each well 2 hours before measuring the absorbance (17). For the cell viability assay, after cells were incubated for 48 hours (5×10^3/well), they were exposed to each respective therapeutic agent for 72 hours. Cell viability for each agent was defined as the ratio of absorbance values of the treated cells to control cells (i.e., pharmacologically untreated or genetically unmodified). Absorbance values (450-630 nm) were measured by a Spectra Max 250 96-well Plate Reader (Molecular Devices). Each sample was applied to six wells, and their average rate was calculated. The therapeutic agents used here (in vitro) were cisplatin (Sigma-Aldrich; #P4394), S3I-201 (Santa Cruz Biotechnology; #sc-204304; ref. 18), and verteporfin (MedKoo; #203120).

[4] = tested on: H1299, H1437 and A549 cells; experiment: Apoptosis assay with cisplatin in YAP1-modified cells; type: cell-based, human; conditions: cisplatin 2 or 5 for 72 hours
Experimental: Apoptosis assay. Cells were incubated for 72 hours with CDDP (2 μM or 5 μM) or normal saline. Apoptosis assays were conducted using PE Annexin V Apoptosis Detection Kit with 7-AAD (BioLegend, San Diego, USA) according to manufacturer's protocol. Treated cells were analyzed by BD FACSCalibur flow cytometer (BD Biosciences, San Jose, USA).

pSTAT3 = experiment: Recombinant IL6 stimulation (Western blotting); type: cell-based, human; conditions: H1299 and H1437 YAP1-sh cells, 0.1, 1, or 10 ng/mL
Experimental: Recombinant IL6 stimulation and neutralization of IL6. For exogenous IL6 stimulation, 5×10^5 cells were seeded in 10-cm dishes. After 48 hours, human recombinant IL6 (0.1, 1, or 10 ng/mL) from PeproTech was added to the cells. They were harvested after 48-hour incubation. To neutralize the IL6, Human/Primate IL6 Antibody (R&D Systems) was administered. We cultured 5×10^5 cells in 10-cm dishes. After 48 hours, antibody (1 mg/mL) was added to the cells. They were then harvested after 24 or 48 hours. Protein expression of each sample was evaluated by Western blotting.

In the case of Cc1ccc(S(=O)(=O)OCC(=O)Nc2ccc(C(=O)O)c(O)c2)cc1 [S3I-201], the tumor growth (H1299 xenografts) is reported as “inhibited growth”, the pSTAT3 expression (H1299 and H1437 cells [1]) is reported as “suppressed pSTAT3 without affecting YAP1 or total STAT3 expressions; also recorded: suppressed pSTAT3 in a dose-dependent manner” and the “mRNA expression of STAT3 and its targeted genes NRP1 and PROS1” value (H1299 and H1437 cells [2]) is reported as “suppressed both STAT3 and its targeted genes; also recorded: inhibited mRNA expressions of not only NRP1 and PROS1 (STAT3-targeting genes) but also STAT3”. For the same molecule, the “infiltration of MDSCs (GR-1) and CD8+ T cells in the TME, IHC” value (MB49 derived xenograft; mouse, in vivo) was “decreased infiltration of MDSCs (GR-1) and significantly more CD8+ T cells”, the tumor growth (MB49 derived xenograft; mouse, in vivo) was “significant regression of the tumor growth” and the “expression of CSC associated markers and CXCLs in tumor tissues” value (MB49 derived xenograft; listed as STAT3 inhibitor) was “downregulate different CXCR2 associated ligands”. For the same molecule, the “expression of CSC associated markers and CXCLs in tumor tissues” value (MB49 derived xenograft; listed as STAT-3 inhibitor) was “significantly decreased expression of CSC associated markers and CXCLs” and the tumor growth (H1437 xenografts) was “did not significantly affect tumor growth”.
For N.N.[Cl][Pt][Cl] [cisplatin], the “sensitivity to cisplatin (cell viability)” value (shortened to “sensitivity to cisplatin”) ([3]; A549 YAP1-LV cells versus control cells, 72 hours) was “relatively resistant; also recorded: higher resistance”, the “sensitivity to cisplatin” value ([3]; A549 YAP1-LV/STAT3-si cells versus YAP1-LV/STAT3-Ctrl cells) was “restored cisplatin sensitivity” and the “sensitivity to cisplatin” value ([3]; H1299 and H1437 YAP1-sh cells versus control cells, 72 hours) was “increased sensitivities; also recorded: greater sensitivity”. For the same molecule, the “sensitivity to cisplatin” value ([3]; YAP1-sh/STAT3-LV cells (H1299 and H1437) versus YAP1-sh/STAT3-Ctrl cells, 72 hours, 5 cisplatin) was “restored cell proliferation and cisplatin resistance; also recorded: less sensitivity”, the “sensitivity to cisplatin” value ([3]; YAP1-sh/STAT3-si cells (H1299 and H1437) versus single inhibition or control) was “greater sensitivity; also recorded: highest sensitivity” and the cells undergoing apoptosis ([4]; YAP1-LV cells versus control cells) was “lower fractions; also recorded: substantially less apoptosis”. The cells undergoing apoptosis ([4]; YAP1-sh cells versus control cells) was “higher fractions of apoptotic cells; also recorded: greater percentages of cells undergoing apoptosis”.
“IL6: human recombinant IL6 from PeproTech” was tested, and the pSTAT3 level (pSTAT3) was “increased pSTAT3 expressions in a dose-dependent manner” and the pSTAT3 level (pSTAT3; listed as recombinant human IL6) was “increased pSTAT3 levels dose dependently”.
